Numbers after ± are expanded uncertainties.
Tests used:
[1] = Liquid, Rate of evaporation
[2] = Boiling temperature at pressure P; conditions: 1.1 kPa, Liquid

## CCCCCCCCCC(=O)OCC(O)COC(=O)CCCCCCCCC [2-hydroxypropane-1,3-diyl bis(decanoate)]
[1]; 535.66 K
  vapor or sublimation pressure: 1 ± 0.1 kPa
[1]; 538.32 K
  vapor or sublimation pressure: 1.1 ± 0.2 kPa
[1]; 544.06 K
  vapor or sublimation pressure: 1.5 ± 0.2 kPa
[1]; 554.25 K
  vapor or sublimation pressure: 2.5 ± 0.2 kPa
[1]; 558.74 K
  vapor or sublimation pressure: 3.1 ± 0.3 kPa
[1]; 562.37 K
  vapor or sublimation pressure: 3.6 ± 0.4 kPa
[1]; 565.39 K
  vapor or sublimation pressure: 4.3 ± 0.5 kPa

## CCCCCCCCCC(=O)OCC(O)CO (stereo not drawn) [2,3-dihydroxypropyl decanoate]
[1]; 478.69 K
  vapor or sublimation pressure: 1.1 ± 0.2 kPa
[1]; 482.79 K
  vapor or sublimation pressure: 1.5 ± 0.2 kPa
[1]; 491.77 K
  vapor or sublimation pressure: 2.5 ± 0.3 kPa
[1]; 497.13 K
  vapor or sublimation pressure: 3.1 ± 0.6 kPa
[1]; 498.31 K
  vapor or sublimation pressure: 3.6 ± 0.4 kPa
[1]; 501.31 K
  vapor or sublimation pressure: 4.3 ± 0.4 kPa
[1]; 511.21 K
  vapor or sublimation pressure: 6.8 ± 0.7 kPa
[1]; 519.1 K
  vapor or sublimation pressure: 10.1 ± 1 kPa
[1]; 524.41 K
  vapor or sublimation pressure: 13.2 ± 1.2 kPa

## Cc1c(C)c2c(c(C)c1O)CC[C@@](C)(CCC[C@H](C)CCC[C@H](C)CCCC(C)C)O2 [(+)-α-tocopherol]
[2]; Rate of evaporation
  Boiling temperature at pressure P: 276.11 ± 8.4 °C

## CCCCCCCC(=O)OCC(O)COC(=O)CCCCCCC [glycerol 1,3-dicaprylate]
[1]; 511.93 K
  vapor or sublimation pressure: 1.1 ± 0.2 kPa
[1]; 517.23 K
  vapor or sublimation pressure: 1.5 ± 0.2 kPa
[1]; 529.42 K
  vapor or sublimation pressure: 2.5 ± 0.2 kPa
[1]; 533.36 K
  vapor or sublimation pressure: 3.1 ± 0.3 kPa
[1]; 538.14 K
  vapor or sublimation pressure: 3.6 ± 0.3 kPa
[1]; 541.18 K
  vapor or sublimation pressure: 4.3 ± 0.4 kPa
[1]; 552.59 K
  vapor or sublimation pressure: 6.8 ± 0.5 kPa
[1]; 560.35 K
  vapor or sublimation pressure: 10.1 ± 0.9 kPa
[1]; 567.73 K
  vapor or sublimation pressure: 13.2 ± 1.2 kPa

## Cc1cc(O)c(C)c2c1O[C@](C)(CCC[C@H](C)CCC[C@H](C)CCCC(C)C)CC2 [(R,R,R)-β-tocopherol]
[2]; DSC
  Boiling temperature at pressure P: 279.58 ± 2.9 °C

## Cc1c(O)cc2c(c1C)O[C@](C)(CCC[C@H](C)CCC[C@H](C)CCCC(C)C)CC2 [(R,R,R)-γ-tocopherol]
[2]; DSC
  Boiling temperature at pressure P: 274.70 ± 4.7 °C

## CCCCCCCC(=O)OCC(O)CO (stereo not drawn) [2,3-dihydroxypropyl octanoate]
[1]; 462.66 K
  vapor or sublimation pressure: 1.1 ± 0.1 kPa
[1]; 468.91 K
  vapor or sublimation pressure: 1.5 ± 0.2 kPa
[1]; 479.02 K
  vapor or sublimation pressure: 2.5 ± 0.2 kPa
[1]; 484.24 K
  vapor or sublimation pressure: 3.1 ± 0.4 kPa
[1]; 485.63 K
  vapor or sublimation pressure: 3.6 ± 0.3 kPa
[1]; 490.19 K
  vapor or sublimation pressure: 4.3 ± 0.4 kPa
[1]; 498.91 K
  vapor or sublimation pressure: 6.8 ± 0.6 kPa
[1]; 507.96 K
  vapor or sublimation pressure: 10.1 ± 0.9 kPa
[1]; 514.64 K
  vapor or sublimation pressure: 13.2 ± 1.2 kPa

## Cc1cc(O)cc2c1OC(C)(CCCC(C)CCCC(C)CCCC(C)C)CC2 (stereo not drawn) [ω-tocopherol]
[2]; DSC
  Boiling temperature at pressure P: 279.5 ± 6.6 °C
